Here are results for one molecule from patent US10093642B2, “Multitarget hedgehog pathway inhibitors and uses thereof” (UNIVERSITA' DEGLI STUDI DI SIENA, priority 2013, dated 2018).

Assay [1] concerns Hh signaling in mouse cerebellar progenitors. Kind of assay: Hh target mRNA in cerebellar progenitors of 6-day old mice after s.c. injection. Format: in vivo, CD1 mice. Conditions: 100 μmol/Kg s.c. for 2 days. The text has this: To assess the in vivo activity of Glabrescione B, we first tested its ability to suppress Hh signaling in 6-day old mouse cerebellar progenitors, considered the cell of origin of MB. 6-day old CD1 mice were randomly divided into two groups (n=6) and injected s.c. with solvent only (2-hydroxypropyl-β-cyclodextrin:ethanol, 3:1) or Glabrescione B in solvent (100 μmol/Kg) for 2 days (2-hydroxypropyl-β-cyclodextrin was purchased from Sigma Aldrich, St. Louis, Mo., USA). Cerebella were collected and mRNA levels were determined by qRT-PCR.

The next assay relates to MEF-Ptch−/− cells. Kind of assay: Gli1 mRNA (quantitative RT-PCR) and protein (western blot) in MEF-Ptch−/− cells. Format: cell-based, mouse. As to conditions: different concentrations, 48 h. As to the method:
FIG. 8. […] (A) Gli1 mRNA levels were determined by quantitative RT-PCR, normalizing to HPRT (Hypoxanthine-guanine phosphoribosyl transferase) expression. Error bars indicate SD.
To analyze the antagonist properties of Glabrescione B under more physiological conditions, the inventors used MEF-Ptch^−/− cells, embryo fibroblasts derived from Ptch^−/− mouse, in which the activation of Hh signaling is consequence of Ptch1 deletion. Since Patched acts as upstream repressor of SMO, inhibition of the Hedgehog pathway from Patched is prevented and the Hedgehog pathway is constitutively activated in this cell lines, which turned out to be a reliable cellular model for studying the effect of Hedgehog inhibitors. […]
In order to determine whether Glabrescione B regulates cells with a constitutive Hh pathway activation, the MEF-Ptch^−/− cell line (a kind gift by M. Scott, Stanford University, CA, in which the activation of Hh signaling is consequence of Ptch1 deletion, Goodrich, L. V. et al, 1997) was treated with Glabrescione B at different concentrations and the effect on expression of Hh/Gli1 pathway was determined by quantitative RT-PCR and western blot analysis. […] Quantitative PCR (QPCR) analysis of Gli1 mRNA expression was performed on each cDNA sample using the ABI Prism 7900 Sequence Detection System employing Assay-on-Demand Reagents (Life Technologies). […]
In general terms: In western blotting, separated proteins are transferred to a membrane and probed.

With `COc1cc(OC)c2c(=O)c(-c3ccc(OCC=C(C)C)c(OCC=C(C)C)c3)coc2c1` [Glabrescione B, 3-(3′,4′-bis(3-methylbut-2-enyloxy)phenyl)-5,7-dimethoxy-4H-chromen-4-one], the “cerebellar levels of Hh target genes (mRNA)” value in assay [1] is recorded as “reduced significantly”. Also, the “Gli1 mRNA and protein levels” value with MEF-Ptch−/− cells was “strongly reduced mRNA and protein levels of Gli1”.
